Data taken from patent US20190367516A1 (Bayer Pharma Aktiengesellschaft, priority 2015, published 2019).
Like-named read-outs stand apart in the source and are kept apart here.

Assays:
human M2 receptor [1] = biological target: T1, human M2 receptor (Homo sapiens, UniProt P08172); type: cell-based; details: α >1 = positive cooperativity
T1 sequence (P08172 1-466): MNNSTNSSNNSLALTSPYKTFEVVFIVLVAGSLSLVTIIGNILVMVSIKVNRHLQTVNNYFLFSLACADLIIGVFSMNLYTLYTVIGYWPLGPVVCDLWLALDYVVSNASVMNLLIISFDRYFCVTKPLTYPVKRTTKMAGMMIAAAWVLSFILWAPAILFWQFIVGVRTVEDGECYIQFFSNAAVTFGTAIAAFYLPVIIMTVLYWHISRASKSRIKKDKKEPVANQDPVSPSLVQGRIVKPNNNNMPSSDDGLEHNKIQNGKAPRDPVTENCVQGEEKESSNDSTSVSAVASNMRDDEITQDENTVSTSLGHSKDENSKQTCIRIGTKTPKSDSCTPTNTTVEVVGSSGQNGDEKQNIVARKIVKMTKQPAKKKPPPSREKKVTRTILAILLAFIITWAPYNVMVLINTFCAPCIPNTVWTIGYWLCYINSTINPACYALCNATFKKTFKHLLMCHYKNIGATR

human M2 receptor [2] = biological target: T1, human M2 receptor; details: for Emax: read-out: Efficiency, boosting of the acetylcholine effect at EC20 acetylcholine concentration
[3] = shift in the acetylcholine dose-response curve (Allosteric EC50 shift, GraphPad PRISM)
[4] = Receptor activity EC50, M2-GIRK1/4 activation test, acetylcholine at EC20, allosteric potency, in some cases mean values from two or more determinations
[5] = shift of acetylcholine dose-response curve (Allosteric EC50 shift)
[6] = Receptor activity EC50, allosteric potency at EC20 acetylcholine, M2-GIRK1/4 reporter cells, in some cases mean of two or more determinations

Cooperativity (alpha factor) (human M2 receptor [1]; [3])	EC50 (human M2 receptor [2]; [4])	Cooperativity (alpha factor) (human M2 receptor [1]; [5])	EC50 (human M2 receptor [2]; [6])	Emax (human M2 receptor [2]; M2-GIRK1/4 reporter cells)	SMILES
31	157 nM				CC[C@@H](NC(=O)c1cn(-c2ccc(F)cc2F)c2nc(N3CCC(O)C3=O)ccc2c1=O)C(F)(F)F (mixture of isomers) [Example 224, 1-(2,4-Difluorophenyl)-7-[3-hydroxy-2-oxopyrrolidin-1-yl]-4-oxo-N-[(2R)-1,1,1-trifluorobutan-2-yl]-1,4-dihydro-1,8-naphthyridine-3-carboxamide]
41	57 nM				O=C(NC(COC(F)(F)F)c1ccccc1)c1cn(-c2ccc(F)cc2F)c2nc(N3C[C@@H](O)CC3=O)ccc2c1=O (mixture of isomers) [Example 233, 1-(2,4-Difluorophenyl)-7-[(4S)-4-hydroxy-2-oxopyrrolidin-1-yl]-4-oxo-N-[1-phenyl-2-(trifluoromethoxy)ethyl]-1,4-dihydro-1,8-naphthyridine-3-carboxamide]
18	35 nM				O=C(N[C@H](c1ccccc1Cl)C(F)(F)F)c1cn(-c2ccc(F)cc2F)c2nc(N3CCCC(O)C3=O)ccc2c1=O (single isomer, unassigned) [Example 207]
		36	12 nM	100%	CC(C)C[C@@H](NC(=O)c1cn(-c2c(F)cc(F)cc2F)c2nc(N3C[C@@H](O)[C@@H](O)C3)ccc2c1=O)C(F)(F)F [Example 574, 7-[(3R,4S)-3,4-Dihydroxypyrrolidin-1-yl]-4-oxo-N-[(2R)-1,1,1-trifluoro-4-methylpentan-2-yl]-1-(2,4,6-trifluorophenyl)-1,4-dihydro-1,8-naphthyridine-3-carboxamide]
		37	12 nM	99.3%	O=C(NC1(C(F)(F)F)CCC1)c1cn(-c2c(F)cc(F)cc2F)c2nc(N3C[C@@H](O)CC3=O)ccc2c1=O [Example 515, 7-[(4S)-4-Hydroxy-2-oxopyrrolidin-1-yl]-4-oxo-N-[1-(trifluoromethyl)cyclobutyl]-1-(2,4,6-trifluorophenyl)-1,4-dihydro-1,8-naphthyridine-3-carboxamide]
50	36 nM				CC[C@@H](NC(=O)c1cn(-c2ccc(F)cc2F)c2nc(N3C[C@@H](OC)CC3=O)ccc2c1=O)C(F)(F)F [Example 193, 1-(2,4-Difluorophenyl)-7-[(4S)-4-methoxy-2-oxopyrrolidin-1-yl]-4-oxo-N-[(2R)-1,1,1-trifluorobutan-2-yl]-1,4-dihydro-1,8-naphthyridine-3-carboxamide]
		27	7 nM	100%	CO[C@H]1CCN(c2ccc3c(=O)c(C(=O)N[C@@H](C4CC4)C(F)(F)F)cn(-c4c(F)cc(F)cc4F)c3n2)C1 [Example 535, N-[(1 S)-1-Cyclopropyl-2,2,2-trifluoroethyl]-7-[(3S)-3-methoxypyrrolidin-1-yl]-4-oxo-1-(2,4,6-trifluorophenyl)-1,4-dihydro-1,8-naphthyridine-3-carboxamide]
20	21 nM				CC[C@H](NC(=O)c1cn(-c2c(F)cc(F)cc2F)c2nc(N3CCCN(CCO)C3=O)ccc2c1=O)C(F)(F)F [Example 365, 7-[3-(2-Hydroxyethyl)-2-oxotetrahydropyrimidin-1(2H)-yl]-4-oxo-N-[(2S)-1,1,1-trifluorobutan-2-yl]-1-(2,4,6-trifluorophenyl)-1,4-dihydro-1,8-naphthyridine-3-carboxamide]
9	113 nM				CC(C)(NC(=O)c1cn(-c2ccc(F)cc2F)c2nc(N3CC[C@@H](OC(F)F)C3)ccc2c1=O)c1c(F)cccc1F [Example 188, 7-[(3R)-3-(Difluoromethoxy)pyrrolidin-1-yl]-1-(2,4-difluorophenyl)-N-[2-(2,6-difluorophenyl)propan-2-yl]-4-oxo-1,4-dihydro-1,8-naphthyridine-3-carboxamide]
